In ChEMBL document CHEMBL5244219, “Recent developments of quinolone-based derivatives and their activities against Escherichia coli” (Eur J Med Chem, 2018):
Values after ≈ are worked out from the molar mass of the structure shown. Blank lines part the entries; values can stand above or below the molecule they belong to.

Assays:
Assay type in all cases: functional
Escherichia coli [1] = experiment: Antibacterial activity against Escherichia coli MTCC 739 assessed as bacterial growth inhibition incubated for 24 hrs by spectrophotometric method
Escherichia coli [2] = experiment: Antibacterial activity against Escherichia coli assessed as zone of inhibition at 500 to 1000 ug per disc; details: dose 500-1000 µg
Escherichia coli [3] = experiment: Antibacterial activity against Escherichia coli assessed as bacterial growth inhibition incubated for 16 to 24 hrs by absorbance analysis; details: time 16-24 hrs
Escherichia coli [4] = experiment: Antibacterial activity against Escherichia coli assessed as bacterial growth inhibition measured after 24 hrs by broth micro dilution method
Escherichia coli [5] = experiment: Antibacterial activity against Escherichia coli 2010-05 assessed as bacterial growth inhibition measured after 24 hrs by agar dilution method
Escherichia coli [6] = experiment: Antibacterial activity against Escherichia coli NIHJ JC-2 assessed as bacterial growth inhibition measured after 24 hrs by agar dilution method
Escherichia coli [7] = experiment: Antibacterial activity against Escherichia coli 2010-29 assessed as bacterial growth inhibition measured after 24 hrs by agar dilution method
Escherichia coli [8] = experiment: Antibacterial activity against Escherichia coli NIHJ assessed as bacterial growth inhibition measured after 24 hrs by agar dilution method
Escherichia coli [9] = experiment: Antibacterial activity against Escherichia coli ATCC 8739 assessed as bacterial growth inhibition incubated for 24 hrs by two-serial dilution method
Escherichia coli [10] = experiment: Antibacterial activity against Escherichia coli assessed as bacterial growth inhibition incubated for 24 hrs by agar streak dilution method
Escherichia coli [11] = experiment: Antibacterial activity against Escherichia coli assessed as bacterial growth inhibition incubated for 18 hrs by twofold serial dilution assay

- MIC (Escherichia coli [1]): 25 µg/mL (≈ 45.7 µM)
Structure (SMILES): Cn1c(=O)cc(OCc2nn(CN3CCN(c4cccc(C(F)(F)F)c4)CC3)c(=S)s2)c2ccccc21

Structure (SMILES): CCn1c(=O)c(C(=O)/C=C/c2ccsc2)c(O)c2ccccc21
- diameter of the inhibition zone (DIZ) (Escherichia coli [2]): 7 mm

- MIC (Escherichia coli [1]): 25 µg/mL (≈ 51.9 µM)
Structure (SMILES): Cn1c(=O)cc(OCc2nn(CN3CCN(c4ccc(F)cc4)CC3)c(=S)o2)c2ccccc21

- MIC (Escherichia coli [3]): 8.97 µg/mL (≈ 35.6 µM)
Structure (SMILES): Cc1[nH]c2ccc(Cl)cc2c(=O)c1CC(=O)O

- MIC (Escherichia coli [4]): > 6.25 µg/mL
Structure (SMILES): CCn1cc(C(=O)O)c(=O)c2cc(F)c(-n3cc(CO[C@H]4O[C@H](COC(C)=O)[C@@H](OC(C)=O)[C@H](OC(C)=O)[C@H]4OC(C)=O)nn3)c(F)c21

- MIC (Escherichia coli [5]): 1 µg/mL (≈ 2.09 µM)
- MIC (Escherichia coli [6]): 8 ng/mL (≈ 0.0167 µM)
- MIC (Escherichia coli [7]): 1 µg/mL (≈ 2.09 µM)
- MIC (Escherichia coli [8]): 8 ng/mL (≈ 0.0167 µM)
Structure (SMILES): CNC1CN(c2c(F)c(C)c3c(=O)c(C(=O)O)cn(-c4cc(N)c(F)cc4CO)c3c2Cl)C1

- MIC (Escherichia coli [9]): > 3 µg/mL
Structure (SMILES): O=C(O)c1cn(C2CC2)c2c(cc(F)c3nc(-c4ccncc4)[nH]c32)c1=O

- MIC (Escherichia coli [5]): 1 µg/mL (≈ 2.22 µM)
- MIC (Escherichia coli [6]): 8 ng/mL (≈ 0.0177 µM)
- MIC (Escherichia coli [7]): 1 µg/mL (≈ 2.22 µM)
- MIC (Escherichia coli [8]): 8 ng/mL (≈ 0.0177 µM)
Structure (SMILES): Nc1cc(-n2cc(C(=O)O)c(=O)c3cc(F)c(N4CC(N)C4)c(Cl)c32)c(CO)cc1F

- MIC (Escherichia coli [3]): 8.97 µg/mL (≈ 32.5 µM)
Structure (SMILES): Cc1[nH]c2c(C)cc([N+](=O)[O-])cc2c(=O)c1CC(=O)O

- MIC (Escherichia coli [9]): > 3 µg/mL
Structure (SMILES): O=C(O)c1cn(C2CC2)c2c(cc(F)c3nc(-c4ccsc4)[nH]c32)c1=O

- MIC (Escherichia coli [5]): 1 µg/mL (≈ 2.21 µM)
- MIC (Escherichia coli [6]): 8 ng/mL (≈ 0.0177 µM)
- MIC (Escherichia coli [7]): 1 µg/mL (≈ 2.21 µM)
- MIC (Escherichia coli [8]): 8 ng/mL (≈ 0.0177 µM)
Structure (SMILES): Nc1cc(-n2cc(C(=O)O)c(=O)c3cc(F)c(N4CC(O)C4)c(Cl)c32)c(CO)cc1F

Structure (SMILES): O=c1[nH]c2ccccc2c2c1cnn2Cc1ccccc1
- diameter of the inhibition zone (DIZ) (Escherichia coli [2]): 7 mm

- MIC (Escherichia coli [3]): 8.97 µg/mL (≈ 34.2 µM)
Structure (SMILES): Cc1[nH]c2ccc([N+](=O)[O-])cc2c(=O)c1CC(=O)O

- MIC (Escherichia coli [9]): > 3 µg/mL
Structure (SMILES): O=C(O)c1cn(C2CC2)c2c(cc(F)c3nc(-c4ccco4)[nH]c32)c1=O

Structure (SMILES): O=c1[nH]c2ccc(Cl)cc2c2c1cnn2Cc1ccccc1
- diameter of the inhibition zone (DIZ) (Escherichia coli [2]): 7 mm

- MIC (Escherichia coli [1]): 25 µg/mL (≈ 49.1 µM)
Structure (SMILES): COc1ccc(N2CCN(Cn3nc(COc4cc(=O)n(C)c5ccccc45)sc3=S)CC2)cc1

- MIC (Escherichia coli [1]): 25 µg/mL (≈ 50.6 µM)
Structure (SMILES): COc1ccc(N2CCN(Cn3nc(COc4cc(=O)n(C)c5ccccc45)oc3=S)CC2)cc1

- MIC (Escherichia coli [1]): 25 µg/mL (≈ 47 µM)
Structure (SMILES): Cn1c(=O)cc(OCc2nn(CN3CCN(c4ccc(C(F)(F)F)cc4)CC3)c(=S)o2)c2ccccc21

- MIC (Escherichia coli [10]): 2 µg/mL (≈ 3.36 µM)
Structure (SMILES): COc1ccc2nc(N3C(=O)CSC3N3CCN(c4cc5c(cc4F)c(=O)c(C(=O)O)cn5C4CC4)CC3)sc2c1 (centres undefined)

- MIC (Escherichia coli [9]): > 3 µg/mL
Structure (SMILES): O=C(O)c1cn(C2CC2)c2c(cc(F)c3nc(-c4ccccn4)[nH]c32)c1=O

- MIC (Escherichia coli [1]): 25 µg/mL (≈ 51.9 µM)
Structure (SMILES): Cn1c(=O)cc(OCc2nn(CN3CCN(c4ccccc4F)CC3)c(=S)o2)c2ccccc21

- MIC (Escherichia coli [9]): > 3 µg/mL
Structure (SMILES): O=C(O)c1cn(C2CC2)c2c(cc(F)c3nc(-c4cccs4)[nH]c32)c1=O

- MIC (Escherichia coli [9]): > 3 µg/mL
Structure (SMILES): O=C(O)c1cn(C2CC2)c2c(cc(F)c3nc[nH]c32)c1=O

Structure (SMILES): Cc1ccc2[nH]c(=O)c3cnn(Cc4ccccc4)c3c2c1
- diameter of the inhibition zone (DIZ) (Escherichia coli [2]): 7 mm

- MIC (Escherichia coli [10]): 2 µg/mL (≈ 3.28 µM)
Structure (SMILES): CCOc1ccc2nc(N3C(=O)CSC3N3CCN(c4cc5c(cc4F)c(=O)c(C(=O)O)cn5C4CC4)CC3)sc2c1 (centres undefined)

- MIC (Escherichia coli [5]): 2 µg/mL (≈ 4.3 µM)
- MIC (Escherichia coli [6]): 8 ng/mL (≈ 0.0172 µM)
- MIC (Escherichia coli [7]): 2 µg/mL (≈ 4.3 µM)
- MIC (Escherichia coli [8]): 8 ng/mL (≈ 0.0172 µM)
Structure (SMILES): CNC1CN(c2c(F)cc3c(=O)c(C(=O)O)cn(-c4cc(N)c(F)cc4CO)c3c2Cl)C1

- MIC (Escherichia coli [10]): 2 µg/mL (≈ 3.39 µM)
Structure (SMILES): N#Cc1ccc2nc(N3C(=O)CSC3N3CCN(c4cc5c(cc4F)c(=O)c(C(=O)O)cn5C4CC4)CC3)sc2c1 (centres undefined)

- MIC (Escherichia coli [11]): 0.049 µg/mL (≈ 0.092 µM)
Structure (SMILES): CCn1cc(C(=O)O)c(=O)c2cc(F)c(N3CCN(C/C(=N/OCc4ccccc4)c4ccoc4)CC3)cc21

Structure (SMILES): CCn1c(=O)c(C(=O)/C=C/c2cccs2)c(O)c2ccccc21
- diameter of the inhibition zone (DIZ) (Escherichia coli [2]): 7 mm

- MIC (Escherichia coli [11]): 0.049 µg/mL (≈ 0.111 µM)
Structure (SMILES): CCn1cc(C(=O)O)c(=O)c2cc(F)c(N3CCN(C/C(=N/O)c4ccoc4)CC3)nc21

- MIC (Escherichia coli [1]): 25 µg/mL (≈ 50.2 µM)
Structure (SMILES): Cn1c(=O)cc(OCc2nn(CN3CCN(c4ccc(F)cc4)CC3)c(=S)s2)c2ccccc21

- MIC (Escherichia coli [4]): > 6.25 µg/mL
Structure (SMILES): CCn1cc(C(=O)O)c(=O)c2cc(F)c(-n3cc(CO[C@H]4OC[C@@H](OC(C)=O)[C@@H](OC(C)=O)[C@H]4OC(C)=O)nn3)c(F)c21

- MIC (Escherichia coli [3]): 8.97 µg/mL (≈ 33.6 µM)
Structure (SMILES): Cc1[nH]c2cc3ccccc3cc2c(=O)c1CC(=O)O

- MIC (Escherichia coli [10]): 2 µg/mL (≈ 3.21 µM)
Structure (SMILES): CC(=O)Nc1ccc2nc(N3C(=O)CSC3N3CCN(c4cc5c(cc4F)c(=O)c(C(=O)O)cn5C4CC4)CC3)sc2c1 (centres undefined)

- MIC (Escherichia coli [10]): 2 µg/mL (≈ 3.16 µM)
Structure (SMILES): CCn1cc(C(=O)O)c(=O)c2cc(F)c(N3CCN(C4SCC(=O)N4c4nc5ccc(Br)cc5s4)CC3)cc21 (centres undefined)

- MIC (Escherichia coli [10]): 2 µg/mL (≈ 3.46 µM)
Structure (SMILES): CCn1cc(C(=O)O)c(=O)c2cc(F)c(N3CCN(C4SCC(=O)N4c4nc5ccc(C#N)cc5s4)CC3)cc21 (centres undefined)

- MIC (Escherichia coli [1]): 25 µg/mL (≈ 45.7 µM)
Structure (SMILES): Cn1c(=O)cc(OCc2nn(CN3CCN(c4ccc(C(F)(F)F)cc4)CC3)c(=S)s2)c2ccccc21
